Source: article PMC8900816, “High-resolution structures of the bound effectors avadomide (CC-122) and iberdomide (CC-220) highlight advantages and limitations of the MsCI4 soaking system” (Acta Crystallographica. Section D, Structural Biology, 2022)

Target: T1, MsCI4 (Magnetospirillum gryphiswaldense, UniProt A4TVL0)
T1 construct: gene MGR_0879; wild-type single-domain bacterial cereblon homologue; pETHis1a, E. coli C41(DE3); His tag removed with TEV; three monomers per asymmetric unit; structural zinc; RED-NHS amine-labelled for MST
T1 sequence (A4TVL0 1-124): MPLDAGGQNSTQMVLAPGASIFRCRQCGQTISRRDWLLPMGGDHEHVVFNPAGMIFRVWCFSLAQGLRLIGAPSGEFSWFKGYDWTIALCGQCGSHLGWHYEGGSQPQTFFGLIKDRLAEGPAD
Experiment: labelled microscale thermophoresis
Assay type: binding
Conditions: read-out: MsCI4 (K d, μM) / Labelled MST

Row | Kd | Structure (SMILES)
1 | 0.409 ± 0.03 µM | O=C1CC[C@H](N2Cc3c(OCc4ccc(CN5CCOCC5)cc4)cccc3C2=O)C(=O)N1 [Iberdomide]
2 | 4.84 ± 0.3 µM | Cc1nc2cccc(N)c2c(=O)n1[C@H]1CCC(=O)NC1=O [Avadomide]
